Article PMC5145814 (Molecular Cell, 2016)

Assays:
[1] = molecular target: T1, RFS-1/RIP-1 (Caenorhabditis elegans, UniProt P34348); assay: stopped-flow Cy3 fluorescence, binding to RAD-51-ssDNA filament […]' end; format: biochemical; conditions: 25°C; 50 nM RFS-1/RIP-1 pre-incubated with ADP; 1 μM RAD-51, 15 nM 5'-Cy3-43-mer
T1 sequence (P34348 1-245): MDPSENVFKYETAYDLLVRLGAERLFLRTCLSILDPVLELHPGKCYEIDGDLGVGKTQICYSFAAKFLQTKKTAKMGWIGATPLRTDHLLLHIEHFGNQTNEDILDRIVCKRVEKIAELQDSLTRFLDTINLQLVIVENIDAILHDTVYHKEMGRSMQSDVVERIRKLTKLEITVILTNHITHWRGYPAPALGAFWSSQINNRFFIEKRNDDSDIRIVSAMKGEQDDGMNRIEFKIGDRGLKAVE
T1 sequence (Q21621 1-209 partner): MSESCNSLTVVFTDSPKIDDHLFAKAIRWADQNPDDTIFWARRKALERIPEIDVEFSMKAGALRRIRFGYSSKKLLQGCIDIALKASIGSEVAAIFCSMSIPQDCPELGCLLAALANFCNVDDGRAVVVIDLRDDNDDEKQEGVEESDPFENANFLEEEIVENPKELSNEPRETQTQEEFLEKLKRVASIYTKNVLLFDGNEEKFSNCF

[2] = molecular target: T2, RAD-51 (Caenorhabditis elegans, UniProt G5EGG8); assay: fluorescence titration, fixed TNP-ATP concentration; format: binding; conditions: 25°C; fluorescent ATP analog; labelled compound
T2 sequence (G5EGG8 1-357): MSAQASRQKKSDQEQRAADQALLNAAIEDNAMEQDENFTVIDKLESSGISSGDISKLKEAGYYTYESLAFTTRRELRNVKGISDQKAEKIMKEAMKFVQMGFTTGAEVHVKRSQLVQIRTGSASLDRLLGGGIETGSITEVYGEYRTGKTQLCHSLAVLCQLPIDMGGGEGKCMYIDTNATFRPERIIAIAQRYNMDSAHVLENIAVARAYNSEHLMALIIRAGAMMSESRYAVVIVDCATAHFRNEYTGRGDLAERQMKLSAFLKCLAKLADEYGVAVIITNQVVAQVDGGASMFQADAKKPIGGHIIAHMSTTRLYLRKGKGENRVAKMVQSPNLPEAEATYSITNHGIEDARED

With `Nc1ncnc2c1ncn2[C@@H]1O[C@H](COP(=O)(O)OP(=O)(O)O)[C@@H](O)[C@H]1O` [ADP] the “Δ Cy3 fluorescence” value [1] was “RFS-1/RIP-1 was pre-incubated with ADP (Figures 5C and 5D)”.
TNP-ATP gave a Kd [2] of about 3.5 µM.
